Tests used:
[1] = cited from earlier work
[2] = system: A549 lung cancer cell line; assay: Growth assay (MTT) after transfection of CDCA5 mutant vectors, A549; assay type: cell-based, human; conditions: MTT at 6th day after transfection; compared with mock and wild type vectors
Description: (§1) [FIG. 7A] The function of ERK-dependent phosphorylation sites in cancer cells. […] Growth assay was performed using A549 and LC319 lung cancer cell lines transfected with mock, wild type and CDCA5 alanine substitute vectors. MTT assay was performed at 6th day after transfection.
(§2) [FIG. 7B] The function of ERK-dependent phosphorylation sites in cancer cells. B, Growth assay was performed using LC319 and A549 lung cancer cell line which was transfected with mock, wild type and CDCA5 phospho-mimicking mutant vectors. MTT assay was performed at 6th day after transfection.
(§3) Cell growth may be measured by methods known in the art, e.g., using the MTT cell proliferation assay; briefly, cell-counting kit-8 solution (DOJINDO) is added to each dish at a concentration of 1/10 volume, and the plates are incubated at 37 degree Centigrade (C) for additional 2 hours. Absorbance is then measured at 450 nm as a reference, with a Microplate Reader 550 (BIO-RAD, Hercules, Calif.).

[3] = system: LC319 lung cancer cell line; assay: Growth assay (MTT) after transfection of CDCA5 mutant vectors, LC319; assay type: cell-based, human; conditions: MTT at 6th day after transfection; compared with mock and wild type vectors
Description: as §1, §2, §3

ERK = conditions: EGF stimulation
Description: (§4) [FIG. 5] […] B, Non-tagged CDCA5 expressing vector was transfected to HeLa cells. After starving the cells in FBS free for 20 hours, EGF stimulations were performed at 5, 10, 20, 30 minutes. 10 uM U0126 treatment was performed for 1 hour.
[FIG. 6A] […] A, ERK1 or ERK2 expressing vector was co-transfected with non-tagged CDCA5 expressing vector to HeLa cells. After starvation of HeLa cells in FBS free for 20 hours, the cells were stimulated with 50 ng/ml EGF for 5, 10, 20, 30 minutes, respectively. 10 uM U0126 treatment was performed for 1 hour before EGF stimulation.
(§5) Cultured cervical squamous cell carcinoma HeLa cells were cultured in FCS free medium for 20 hours. Then, the cells were stimulated by […] EGF for 20 min with or without 10 micro-M MEK inhibitor U0126 (Promega).

CDCA5 = system: CDCA5
Description: as §4, §5

## C#Cc1cccc(Nc2ncnc3cc(OCCOC)c(OCCOC)cc23)c1 [erlotinib]
[1]; NSCLC, placebo 4.7 months (NPL 10)
  median survival: 6.7 months

## Ser209 alanine substitute: CDCA5 mutant, alanine at position 209 (SEQ ID NO: 7), expressed from transfected vector; dominant negative
[2]
  growth of A549 cells (MTT assay): inhibited the growth
[3]
  growth of LC319 cells (MTT assay): inhibited the growth

## COc1cc2ncnc(Nc3ccc(F)c(Cl)c3)c2cc1OCCCN1CCOCC1 [gefitinib]
[1]; NSCLC (NPL 11)
  response rate and symptom control: superior response rate and symptom control

## N#CC(=C(/N)Sc1ccccc1N)/C(C#N)=C(\N)Sc1ccccc1N [U0126]
ERK; HeLa cells transfected with ERK1 or ERK2 and CDCA5 vectors, 10 uM U0126 for 1 hour before EGF
  activation of exogenous ERK1 or 2 as well as endogenous ERK: but not in U0126 MEK inhibitor treatment
ERK; serum-starved HeLa cells, 10 micro-M U0126
  levels of ERK phosphorylation: reduced the levels of ERK phosphorylation
CDCA5; serum-starved HeLa cells, EGF stimulation, 10 micro-M U0126
  upper shift of endogenous CDCA5 band: completely inhibited the upper shift of CDCA5 band
CDCA5; transfected HeLa cells, 2D-Western-blotting with anti-myc antibody, U0126 treatment
  signal of spot no. 2 of myc-tagged CDCA5 increased by EGF stimulation: also reduced
CDCA5; transfected HeLa cells, 2D-Western-blotting with anti-myc antibody, pre-incubation with U0126
  EGF-induced shifted spots (no. 3 and 4) with more acidic pI of myc-tagged CDCA5: significantly reduced
